# Entries after “also recorded” stand apart in the source; their conditions may differ.
# Columns and labels:
# [1] = system: primary cultured astrocyte; assay type: cell-based, mouse
# TREK-1 [2] = test: Gβγ-induced whole-cell current in cultured astrocytes; assay type: cell-based, mouse; settings: 6.09 nM Gβγ; for Gβγ-induced conductance: 150 [Glu]in, gene silencing; for Gβγ-induced whole-cell current: competitive peptide in patch pipette
# Method: (§1) Current-voltage (I-V) curves were recorded from COS-7 expressing TREK-1. I-V curves were established by applying 1000-ms-duration voltage ramps from +70 to −100 mV. Data were acquired by an Axopatch 200A amplifier controlled by Clampex 9.2 via Digidata 1322A data acquisition system (Molecular Devices). Internal solution contained the following (in mM: 150 KCl, 5 EGTA, 10 HEPES, 0.5 CaCl2, 1 MgCl2, pH 7.3, 280 osm). Bath solution contains the following (in mM: 150 NaCl, 10 HEPES, 3 KCl, 2 CaCl2, 2MgCl2, and 5.5 glucose, pH 7.3). The pipette solution for observing Ca^2+ activated Cl^− current (Best1 channel current) whole-cell patch clamp in astrocytes contained the following (in mM: 135 NMDG-Cl, 5 MgCl2, 5 (Ca^2+)-EGTA-N-methyl-D-glucamine (NMDG), 10 HEPES, and 10 glucose, pH 7.3, adjusted with NMDG). We used Ca^2+-free intracellular solution composed of the following (in mM: 135 NMDG-Cl, 5 EGTA-NMDG, 2 MgCl2, 8 HEPES, and 10 sucrose, pH 7.3, adjusted with NMDG). I-V curves were established by applying 1000-ms-duration voltage ramps from +100 to −100 mV.
# We then asked whether Gβγ can directly open any channels in cultured astrocytes. We performed whole-cell current recording with purified Gβγ in the patch-pipette according to the method of Experimentation 12. The results were shown in FIGS. 3d to 3f, FIG. 3i, and FIGS. 12d to 12f.
# TREK-1 [3] = test: Two-cell sniffer patch: Gβγ-induced glutamate release from astrocyte; assay type: cell-based, mouse; settings: 6.09 nM Gβγ, 5 mM glutamate in pipette; peptides 100 μM
# Method: On the day of sniffer-patch, cultured astrocytes (HEK cells added) were transferred to a microscope stage for imaging. External solution contained (in mM): 150 NaCl, 10 Hepes, 3 KCl, 2 CaCl2, 2 MgCl2, 5.5 glucose, pH adjusted to pH 7.3 and osmolarity to 325 mOsmol kg* Rupture current were recorded from astrocyte under voltage (Vh=−70 mV) using Multiclamp 700B amplifier (Molecular Devices), acquired with pClamp 9.2. Recording electrodes (4-7MΩ) were filled with (mM): 5 glutamate, 135 CsCl, 0.5 CaCl2, 10 Hepes, 4 Mg-ATP, 0.3 Na3-GTP, 10 BAPTA and 6.09 nM Gβγ (pH adjusted to 7.3 with CsOH and osmolarity adjusted to 290-310 mOsm/kg with sucrose). In the case of gene silencing, transfection method is the same as simultaneous recording for sniffer patch. In competition assay, 100 μM N1-N4 synthesized peptides were added to pipette for recording astrocyte. GluR1LY-mediated currents were recorded from HEK cells expressing GluR1-L497Y under voltage clamp (Vh=−70 mV) using Multiclamp 700B amplifier (Molecular Devices), acquired with pClamp 9.2. Recording electrodes (4-7MΩ) were filled with (mM): 110 Cs-Gluconate, 30 CsCl, 0.5 CaCl2, 10 Hepes, 4 Mg-ATP, 0.3 Na3-GTP and 10 BAPTA (pH adjusted to 7.3 with CsOH and osmolarity adjusted to 290-310 mOsm/kg with sucrose). After rupture on the side of HEK cell, GluR1-L497Y-meidated full activation was induced by the treatment of 1 mM glutamate. And then Gβγ on the side of astrocyte was injected with the rupture after 10 min later. This rupture induced both inward current on both recording between astrocyte and HEK cell expressing GluR1-L497Y.
# GNG4 = biological target: T1, GNG4 (Homo sapiens, UniProt P50150); test: Yeast two hybrid interaction of TREK-1 N-terminal segments with GNG4; assay type: binding
# T1 construct: expressed in transfected cells; host or cells: yeast strain AH109
# T1 sequence (P50150 1-75): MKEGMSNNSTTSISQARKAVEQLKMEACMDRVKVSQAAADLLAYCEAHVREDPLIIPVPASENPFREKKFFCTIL
# Source text: The TREK-1-N 1-4 were ligated into pGBKT7 encoding for the GAL4 DNA binding domain (BD) and the gamma 4 was cloned into pGADT7 encoding for the activation domain (AD). To assess the protein-protein interaction between TREK-1-N and gamma 4, both BD/TREK-1-N and AD/gamma 4 were co-transformed into the yeast strain AH109. AH109 is unable to synthesize histidine. However, interaction between TREK1-N and gamma 4 enables the yeast to make the His3 enzyme, thereby permitting histidine biosynthesis and growth on His minimal medium.
# GluR1-L497Y = GluR1-L497Y (Homo sapiens, UniProt P42261, L497Y); assay type: cell-based
# Best1 channel [4] = biological target: Best1 channel (Mus musculus, UniProt O88870); assay type: cell-based
# Best1 channel [5] = biological target: T2, Best1 channel (Mus musculus, UniProt O88870); settings: intracellular Ca2+; read-out: EC50 of activation of Best1 channel; cited from earlier work
# T2 sequence (O88870 1-551): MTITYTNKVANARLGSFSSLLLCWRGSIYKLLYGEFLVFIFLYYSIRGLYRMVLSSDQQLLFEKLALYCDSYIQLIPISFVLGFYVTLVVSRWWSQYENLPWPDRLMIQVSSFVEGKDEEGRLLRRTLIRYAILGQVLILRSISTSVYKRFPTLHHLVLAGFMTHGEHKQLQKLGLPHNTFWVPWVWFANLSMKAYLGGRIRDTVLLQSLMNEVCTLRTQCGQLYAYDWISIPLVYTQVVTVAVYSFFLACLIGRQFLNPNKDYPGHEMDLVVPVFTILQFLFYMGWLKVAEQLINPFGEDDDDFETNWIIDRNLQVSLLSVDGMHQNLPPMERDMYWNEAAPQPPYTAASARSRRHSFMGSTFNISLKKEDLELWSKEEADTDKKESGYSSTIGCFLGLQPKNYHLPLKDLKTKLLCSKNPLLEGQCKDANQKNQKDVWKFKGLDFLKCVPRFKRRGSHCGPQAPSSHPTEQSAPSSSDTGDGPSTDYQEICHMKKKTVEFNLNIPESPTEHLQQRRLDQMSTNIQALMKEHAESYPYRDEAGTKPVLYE
# astrocyte = assay type: cell-based, mouse
# mouse TREK-1 = biological target: T3, mouse TREK-1 (Mus musculus, UniProt P97438); test: TREK-1-mediated whole-cell current in COS-7 cells; assay type: cell-based; settings: COS-7 cell expressing TREK-1; voltage ramp
# T3 construct: expressed in transfected cells; host or cells: COS-7
# T3 sequence (P97438 1-426): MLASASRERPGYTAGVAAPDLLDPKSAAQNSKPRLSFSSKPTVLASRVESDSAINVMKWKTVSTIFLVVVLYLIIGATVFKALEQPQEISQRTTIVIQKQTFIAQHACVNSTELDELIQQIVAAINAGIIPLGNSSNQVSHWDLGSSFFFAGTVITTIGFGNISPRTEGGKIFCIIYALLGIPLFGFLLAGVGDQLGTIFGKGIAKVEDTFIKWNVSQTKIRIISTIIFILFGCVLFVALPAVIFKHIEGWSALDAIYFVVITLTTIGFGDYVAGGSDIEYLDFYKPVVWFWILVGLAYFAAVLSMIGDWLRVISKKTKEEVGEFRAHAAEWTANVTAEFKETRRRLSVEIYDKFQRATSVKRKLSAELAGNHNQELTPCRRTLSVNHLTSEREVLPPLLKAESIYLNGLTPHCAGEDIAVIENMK
# Method: as §1
# GluR1-L497Y, sequence (P42261 19-906 L497Y limits assumed): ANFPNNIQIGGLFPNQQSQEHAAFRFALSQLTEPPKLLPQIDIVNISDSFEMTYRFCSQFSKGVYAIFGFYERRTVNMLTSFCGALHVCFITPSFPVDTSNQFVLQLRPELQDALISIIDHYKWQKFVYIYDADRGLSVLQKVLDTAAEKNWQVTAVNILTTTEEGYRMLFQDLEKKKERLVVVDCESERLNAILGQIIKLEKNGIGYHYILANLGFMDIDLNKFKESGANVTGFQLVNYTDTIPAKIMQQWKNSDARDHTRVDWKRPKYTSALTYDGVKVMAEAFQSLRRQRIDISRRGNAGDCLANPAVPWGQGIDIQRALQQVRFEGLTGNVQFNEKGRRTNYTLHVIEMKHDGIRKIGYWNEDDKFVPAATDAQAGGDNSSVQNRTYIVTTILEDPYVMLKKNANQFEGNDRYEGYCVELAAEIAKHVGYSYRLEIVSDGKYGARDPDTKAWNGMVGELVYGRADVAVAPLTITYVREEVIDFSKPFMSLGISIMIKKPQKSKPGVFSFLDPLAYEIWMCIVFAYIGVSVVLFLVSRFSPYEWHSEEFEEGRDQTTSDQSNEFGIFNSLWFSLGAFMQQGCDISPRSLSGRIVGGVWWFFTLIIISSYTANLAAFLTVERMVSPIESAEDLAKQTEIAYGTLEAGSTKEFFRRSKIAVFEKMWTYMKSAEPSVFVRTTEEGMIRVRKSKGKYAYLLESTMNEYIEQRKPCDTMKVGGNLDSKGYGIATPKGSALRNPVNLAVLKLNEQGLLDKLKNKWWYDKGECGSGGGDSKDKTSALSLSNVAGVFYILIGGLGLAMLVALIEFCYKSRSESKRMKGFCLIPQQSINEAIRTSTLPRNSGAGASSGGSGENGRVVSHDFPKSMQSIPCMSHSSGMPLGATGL
compound,measurement,setting,value
"TREK-1-shRNA: shRNA for mouse TREK-1 targeted at nucleotides 1043 to 1063 (SEQ ID NO: 17), in pSicoR (guide GCGTGGAGATCTACGACAAGT)",fast-mode of TFLLR-induced glutamate release,[1],selectively eliminated
same,slow-mode of TFLLR-induced glutamate release,[1],without affecting
same,Gβγ-induced conductance,TREK-1 [2],eliminated
same,Gβγ-induced conductance,TREK-1 [2]; listed as TREK-1 specific shRNA,almost completely removed
same,Gβγ-induced current in astrocyte,TREK-1 [3],abolished
same,Gβγ-induced glutamate release (sensor current),TREK-1 [3],abolished
AQNSKPRLSFSS (Competitive peptides N2 of TREK-1),Gβγ-induced whole-cell current,TREK-1 [2],significantly reduced
same,interaction with GNG4,GNG4,strongly interacted
CO/C1=C\C(C)=C\[C@@H](C)[C@@H](O)[C@@H](C)C/C(C)=C/C=C/[C@H](OC)[C@@H]([C@@H](C)[C@@H](O)[C@H](C)[C@@]2(O)C[C@@H](O)[C@H](C)[C@@H](C(C)C)O2)OC1=O [Bafilomycin A1],fast and slow-modes of TFLLR-induced glutamate release (TFLLR-induced GluR1L497Y-mediated current),[1],significantly reduction; also recorded: significantly reduced; also recorded: appeared to block
same,1 mM glutamate-induced GluR1L497Y-mediated current of sensor cell,GluR1-L497Y,marked reduction
same,GluR1LY-mediated Ca2+ transient evoked by 1 mM glutamate,GluR1-L497Y,reduces
same,surface expression of GluR1-L497Y in the sensor cell,GluR1-L497Y,almost completely eliminated
same,Ca2+-activated anion current,Best1 channel [4],inhibited
[Ca+2] [Ca^2+],EC50,Best1 channel [5],150 nM
O=C([O-])c1c(Cl)c(Cl)c(Cl)c(Cl)c1-c1c2cc(I)c(=O)c(I)c-2oc2c(I)c([O-])c(I)cc12.[Na+].[Na+] [Rose Bengal],fast and slow-modes of TFLLR-induced glutamate release (TFLLR-induced GluR1L497Y-mediated current),[1],does not inhibit; also recorded: did not have any effect
same,glutamate release in response to mechanical stimulation,astrocyte,inhibited
AAPDLLDPKSA (Competitive peptides N1 of TREK-1),Gβγ-induced whole-cell current,TREK-1 [2],significantly reduced; also recorded: almost inhibit
same,interaction with GNG4,GNG4,strongly interacted
same,Gβγ-induced current in astrocyte,TREK-1 [3],significantly reduced
same,Gβγ-induced glutamate release (sensor current),TREK-1 [3],significantly reduced
DSAINVMKWKT (Competitive peptides N4 of TREK-1),Gβγ-induced whole-cell current,TREK-1 [2],significantly reduced
same,interaction with GNG4,GNG4,strongly interacted
"Cc1nc(N=Nc2ccc(S(=O)(=O)[O-])cc2S(=O)(=O)[O-])c(COP(=O)([O-])[O-])c(C=O)c1O.[Na+].[Na+].[Na+].[Na+] [PPADS, pyridoxal phosphate-6-azophenyl-2′,4′-disulfonic acid tetrasodium salt]",fast-mode of TFLLR-induced glutamate release,[1],appeared to block
same,1 mM glutamate-induced GluR1L497Y-mediated current of sensor cell,GluR1-L497Y,non-specific effect
same,TREK-1-mediated current,mouse TREK-1,inhibits

# — US8871463B2, “Method for screening a glutamate release inhibitor in an astrocyte” (Korea Institute of Science and Technology, priority 2012, dated 2014)
